Test results: article PMC10974275, “Pharmacokinetic Interaction of Kratom and Cannabidiol in Male Rats” (Pharmaceutics, 2024)
Where two headings read alike, the source gives them in different places.

Experiments:
[1] = Single-dose pharmacokinetics of concomitant cannabidiol product and kratom product; assay type: in vivo, male Sprague-Dawley rats; settings: for AUC0–∞/dose / CL/F / Vd/F: Single-Dose; for AUC0–∞/dose: dose-normalized; for CL/F / Vd/F: plasma; for CL/F: read-out: CL/F (apparent oral clearance) (converted); for Vd/F: read-out: V/F (apparent volume of distribution); for AUC(0-t): read-out: AUC0–24
Protocol: (§1) Male Sprague-Dawley rats (weight 250 ± 25 g) were obtained from Envigo (Indianapolis, IN, USA) with indwelling jugular vein catheters. Animals were acclimated for ≥72 h in a temperature- and humidity-controlled vivarium on a 12 h light/dark cycle. All studies were approved by the University of Florida’s Institutional Animal Care and Use Committee (IACUC) and carried out in accordance with Association for Assessment and Accreditation of Laboratory Animal Care International (AAALAC) and National Institute of Health (NIH) guidelines. In the single-dose studies, rats were fasted for 10 h prior to dosing and an additional 2 h post-dose.
(§2) For the single-dose study, rats were pretreated with 50 mg/kg cannabidiol by oral gavage and, after 30 min, were dosed with 0.8 mL/kg OPMS Gold solution. A period of 30 min was observed between doses to reduce the likelihood of interactions between the formulations in the stomach. Rats were connected to an automatic blood collection system (BASi, West Lafayette, IN, USA), and blood samples were taken pre-kratom product dose and 0.08, 0.17, 0.25, 0.5, 1, 2, 3, 4, 6, 8, 12, 18, 24, 30, 36, 42, and 48 h after kratom product dose administration. For the multiple-dose study, rats were pretreated with 25 mg/kg cannabidiol and, after 30 min, were dosed with 0.4 mL/kg OPMS Gold solution every 12 h (0900 and 2100) for a period of 4 days. Blood samples were taken prior to the 0900 dose (24, 48, 72, 96 h). […] Plasma was separated from blood by centrifugation at 850× g for 10 min at 4 °C. Samples were stored at −20 °C until analysis.
(§3) Standards were prepared by adding 2.0 μL of CS or QC stock to 18 μL of blank rat plasma. This generated eight calibration standards (5–500 ng/mL) and four QC standards (5, 8, 200, and 400 ng/mL). After spiking, the standards were vortex-mixed for 5 min at 650 rpm. Analytes were precipitated with 80 μL methanol acidified with 0.05% formic acid containing 25 ng/mL IS-1 and IS-2 (Quenching Solution; QS). Samples were transferred to a 96-well filter plate and centrifuged at 850× g for 2 min at 4 °C. Study samples were prepared in the same manner by aliquoting 20 μL and adding 80 μL QS prior to vortex mixing and filtration.
(§4) Samples were analyzed using previously validated ultraperformance liquid chromatography-tandem mass spectrometry (UPLC-MS/MS) methods for the quantification of cannabinoids and alkaloids in rat plasma. Both methods used a Waters Acquity I-Class UPLC coupled to a Xevo TQ-S micro mass spectrometer (Waters, Milford, MA, USA). The source gas was nitrogen, and the collision gas was argon. The autosampler was maintained at 10 °C.
(§5) For the cannabinoid bioanalytical method, a 1.7 µm, 2.1 x 100 mm C18 BEH column was utilized with a pre-column of the same chemistry (Waters, Milford, MA, USA) held at 40 °C. […] Cannabidiol was detected in positive electrospray ionization mode using multiple reaction monitoring.
(§6) For the peak separations of kratom alkaloids required for quantification, a 1.7 µm, […] × 100 mm C18 BEH column with a pre-column of the same chemistry (Waters, Milford, MA, USA) was utilized and held at 50 °C throughout the analysis. A gradient elution was used with mobile phase of aqueous ammonium acetate buffer [2.5 mM, pH 3.5 (A)] and acetonitrile (B). The gradient was held at 90% A for 1 min and decreased to 60% by 10 min. From 10 to 10.5 min, the percent of A was decreased sharply to 30% and was then set to initial conditions from 10.5 to 11 min to re-equilibrate the column. The alkaloids were detected in positive electrospray ionization mode using multiple reaction monitoring.
The TargetLynx™ application of MassLynx™ was used for data processing and quantification of the UPLC-MS/MS data (Waters, Milford, MA, USA). Phoenix Version 6.4 (Certara, Princeton, NJ, USA) was used to perform a non-compartmental analysis of concentration–time data. GraphPad Prism Version 8 (GraphPad Software, San Diego, CA, USA) was used to generate all figures. […]

[2] = set-up: method as in PMID 33620222; settings: n = 4, mean ± SEM, cited from earlier work
[3] = Single oral dose pharmacokinetics of kratom product alone (control data from Kamble et al.); settings: without cannabidiol
[4] = Single oral dose pharmacokinetics of cannabidiol product alone; assay type: in vivo, male Sprague-Dawley rats; settings: male, Sprague-Dawley, rat, cannabidiol in plasma, single oral dose of cannabidiol product alone (50 mg/kg), n = 4, mean ± SEM
[5] = Multiple-dose (steady-state) pharmacokinetics of concomitant cannabidiol and kratom product; assay type: in vivo, male Sprague-Dawley rats; settings: mean ± SEM; for Accumulation Index / Fluctuation / concentration at 5 days / AUC(0-inf) / AUC / Cmax at 5 days: 5-day q12 h oral 25 mg/kg cannabidiol and kratom product (Eq. 4.7 mg/kg mitragynine); for AUC0–∞/dose / CL/F at 5 days / Vd/F at 5 days: Multiple-Dose; for AUC0–∞/dose: dose-normalized; for concentration at 5 days / CL/F at 5 days / Vd/F at 5 days / AUC(0-inf) / AUC / Cmax at 5 days: male, Sprague-Dawley, rat; for concentration at 5 days / CL/F at 5 days / Vd/F at 5 days / AUC(0-inf) / AUC: plasma; for concentration at 5 days: oral; for CL/F at 5 days / Vd/F at 5 days: po; for CL/F at 5 days: read-out: CL/F (apparent oral clearance) (converted); for Vd/F at 5 days: read-out: V/F (apparent volume of distribution); for AUC(0-inf): from time 0 (96 h) extrapolated to infinity; for AUC: over the dosing interval (12 h); for Cmax at 5 days: maximum plasma concentration at steady-state
Protocol: as §1, §2, §3, §4, §5, §6
The TargetLynx™ application of MassLynx™ was used for data processing and quantification of the UPLC-MS/MS data (Waters, Milford, MA, USA). Phoenix Version 6.4 (Certara, Princeton, NJ, USA) was used to perform a non-compartmental analysis of concentration–time data. GraphPad Prism Version 8 (GraphPad Software, San Diego, CA, USA) was used to generate all figures.

[6] = minor kratom alkaloid/metabolite in plasma, single concomitant dose of cannabidiol and kratom product, n = 5, mean ± SEM
[7] = minor kratom alkaloid/metabolite in plasma, single oral dose of kratom product alone
[8] = cannabidiol, cannabidiol plus kratom product vs cannabidiol product alone, single dose
[9] = male, Sprague-Dawley, rat, po, mean ± SEM
[10] = male, Sprague-Dawley, rat, cannabidiol in plasma, single concomitant oral dose of cannabidiol product (50 mg/kg) and kratom product (9.4 mg/kg mitragynine), n = 5, mean ± SEM
[11] = average plasma concentration at steady-state, read-out: Cavg,ss
[12] = minimum plasma concentration at steady-state, read-out: Cmin,ss
[13] = male, Sprague-Dawley, rat, mitragynine in plasma, single concomitant oral dose of cannabidiol product (50 mg/kg) and kratom product (9.4 mg/kg mitragynine), n = 5, mean ± SEM
[14] = mitragynine in plasma, single oral dose of kratom product alone (9.6 mg/kg mitragynine)
[15] = male, Sprague-Dawley, rat, po, minor kratom alkaloid/metabolite in plasma, single concomitant dose of cannabidiol and kratom product, n = 5, mean ± SEM
[16] = male, Sprague-Dawley, rat, po, minor kratom alkaloid/metabolite in plasma, single concomitant dose of cannabidiol and kratom product, n = 5, mean ± SEM, read-out: Cmax

SMILES	AUC0–24 [2, 7] [ng·h/mL]	Cmax [2, 7] [ng/mL]	Tmax [2, 7] [h]	AUC0–∞/dose ([1]; mean ± SEM) [ng·h/mL/mg/kg]	CL/F [1, 9] [mL/min/kg]	Vd/F [1, 9] [L/kg]	Accumulation Index [5]	Fluctuation [5] [%]	AUC0–∞/dose [5] [ng·h/mL/mg/kg]	concentration at 5 days [5, 11] [ng/mL]	concentration at 5 days [5, 12] [ng/mL]	CL/F at 5 days [5] [mL/min/kg]	Vd/F at 5 days [5] [L/kg]	AUC(0-inf) [5] [ng·h/mL]	AUC [5] [ng·h/mL]	Cmax at 5 days [5] [ng/mL]	Tmax [1, 15] [h]	AUC(0-t) [1, 15] [ng·h/mL]	Cmax [1, 16] [ng/mL]	also measured
CC[C@@H]1CN2CC[C@@]3(O)C(=Nc4cccc(OC)c43)[C@@H]2C[C@@H]1/C(=C\OC)C(=O)OC [7-hydroxymitragynine]	41.0 ± 7.6	4.0 ± 0.6	3.1 ± 1.7	–	–	–	–	–	–	–	–	–	–	–	–	–	–	–	–	AUC0–24 [1, 6]: 189.2 ± 27.7 ng·h/mL; Cmax [1, 6]: 17.5 ± 2.3 ng/mL; metabolite to parent (mitragynine) exposure ratio percent ([1]; with cannabidiol, single concomitant dose of cannabidiol and kratom product): 3.5%; metabolite to parent (mitragynine) exposure ratio percent [3]: 3.1%
C=C(C)[C@@H]1CCC(C)=C[C@H]1c1c(O)cc(CCCCC)cc1O [Cannabidiol]	–	–	–	97.8 ± 18.5	192	164 ± 26.3	1.8 ± 0.0	219.0 ± 42.7	140.8 ± 34.0	204 ± 51.3	80.9 ± 23.7	217	192 ± 42.1	3520 ± 851	2450 ± 615	489 ± 96.2	–	–	–	Cmax [4]: 589 ± 38.3 ng/mL; Tmax [4]: 3.8 ± 1.5 h; AUC(0-t) ([4]; read-out: AUC0–24): 4400 ± 319 ng·h/mL; AUC0–24 Fold Change (90% CI Ratio) [1, 8]: 1.0 (0.8, 1.1); Cmax Fold Change (90% CI Ratio) [1, 8]: 0.8 (0.7, 0.9); range of 90% confidence interval values of AUC0–24 fold change ([1]; cannabidiol, coadministration with kratom vs cannabidiol alone, single dose): 0.8–1.1; Tmax [1, 10]: 6.3 ± 1 h; AUC(0-t) [1, 10]: 4180 ± 614 ng·h/mL; Cmax ([1]; male, Sprague-Dawley, rat, cannabidiol in plasma, single concomitant oral dose of cannabidiol product (50 mg/kg) and kratom product (9.4 mg/kg mitragynine), n = 5, mean ± SEM, read-out: Cmax): 491 ± 69.2 ng/mL
CC[C@@H]1CN2CCc3c([nH]c4cccc(OC)c34)[C@@H]2C[C@@H]1/C(=C\OC)C(=O)OC [Mitragynine, mitragynine]	–	–	–	578.6 ± 187.9	38.3	25.8 ± 7.5	1.4 ± 0.1	90.0 ± 11.3	605.8 ± 153.1	151 ± 34.7	91.1 ± 24.9	51.7	28.7 ± 3.7	2910 ± 735	1810 ± 417	218 ± 40	–	–	–	Tmax [1, 13]: 17 ± 4.6 h; AUC(0-t) [1, 13]: 5350 ± 1150 ng·h/mL; Cmax ([1]; male, Sprague-Dawley, rat, mitragynine in plasma, single concomitant oral dose of cannabidiol product (50 mg/kg) and kratom product (9.4 mg/kg mitragynine), n = 5, mean ± SEM, read-out: Cmax): 253 ± 68.3 ng/mL; Fluctuation ([5]; listed as mitragynine): ~100%; AUC0–24 [2, 14]: 1306.8 ± 126.1 ng·h/mL; Cmax [2, 14]: 111.9 ± 15.6 ng/mL; Tmax [2, 14]: 3.1 ± 1.7 h
C=C[C@H]1CN2CCc3c([nH]c4cccc(OC)c34)[C@@H]2C[C@@H]1/C(=C\OC)C(=O)OC [Paynantheine, paynantheine]	–	3.0 ± 1.7	0.08 ± 0.0	–	–	–	–	–	–	–	–	–	–	–	–	–	16.2 ± 4.9	290 ± 96.4	19.8 ± 5.8	–
CC[C@@H]1CN2CCc3c([nH]c4cccc(OC)c34)[C@H]2C[C@@H]1/C(=C\OC)C(=O)OC [Speciociliatine, speciociliatine]	222.7 ± 22.2	23.8 ± 1.4	3.2 ± 1.6	–	–	–	–	–	–	–	–	–	–	–	–	–	17 ± 5.9	990 ± 93.7	68.1 ± 5.9	–
